Source: US8680139B2 (Progenra, priority 2009, dated 2014)

target: T1, USP7 (Homo sapiens, UniProt Q93009); experiment: USP7, Ub-PLA2 assay; type: biochemical; conditions: Ub-PLA2 / NBD C6-HPC fluorescence, 30 minute preincubation; read-out: EC50 for inhibition of USP7
T1 construct: full length human USP7 protein; made in house
Method: The purpose of this assay is to measure the inhibition of USP7 by various compounds of the invention synthesized according to the above-described methods. […] The vehicle control was 100% (v/v) DMSO. 1.6 μL aliquots of the diluted test compound and controls were dispensed into individual wells in a black walled 96 well plate. […] The data were normalized within a plate relative to the control wells using the equation % inhibition=(100−(((RFUcompound−RFUmean NEM) / (RFUmean DMSO−RFUmean NEM))×100)).

T1 sequence (Q93009 whole entry): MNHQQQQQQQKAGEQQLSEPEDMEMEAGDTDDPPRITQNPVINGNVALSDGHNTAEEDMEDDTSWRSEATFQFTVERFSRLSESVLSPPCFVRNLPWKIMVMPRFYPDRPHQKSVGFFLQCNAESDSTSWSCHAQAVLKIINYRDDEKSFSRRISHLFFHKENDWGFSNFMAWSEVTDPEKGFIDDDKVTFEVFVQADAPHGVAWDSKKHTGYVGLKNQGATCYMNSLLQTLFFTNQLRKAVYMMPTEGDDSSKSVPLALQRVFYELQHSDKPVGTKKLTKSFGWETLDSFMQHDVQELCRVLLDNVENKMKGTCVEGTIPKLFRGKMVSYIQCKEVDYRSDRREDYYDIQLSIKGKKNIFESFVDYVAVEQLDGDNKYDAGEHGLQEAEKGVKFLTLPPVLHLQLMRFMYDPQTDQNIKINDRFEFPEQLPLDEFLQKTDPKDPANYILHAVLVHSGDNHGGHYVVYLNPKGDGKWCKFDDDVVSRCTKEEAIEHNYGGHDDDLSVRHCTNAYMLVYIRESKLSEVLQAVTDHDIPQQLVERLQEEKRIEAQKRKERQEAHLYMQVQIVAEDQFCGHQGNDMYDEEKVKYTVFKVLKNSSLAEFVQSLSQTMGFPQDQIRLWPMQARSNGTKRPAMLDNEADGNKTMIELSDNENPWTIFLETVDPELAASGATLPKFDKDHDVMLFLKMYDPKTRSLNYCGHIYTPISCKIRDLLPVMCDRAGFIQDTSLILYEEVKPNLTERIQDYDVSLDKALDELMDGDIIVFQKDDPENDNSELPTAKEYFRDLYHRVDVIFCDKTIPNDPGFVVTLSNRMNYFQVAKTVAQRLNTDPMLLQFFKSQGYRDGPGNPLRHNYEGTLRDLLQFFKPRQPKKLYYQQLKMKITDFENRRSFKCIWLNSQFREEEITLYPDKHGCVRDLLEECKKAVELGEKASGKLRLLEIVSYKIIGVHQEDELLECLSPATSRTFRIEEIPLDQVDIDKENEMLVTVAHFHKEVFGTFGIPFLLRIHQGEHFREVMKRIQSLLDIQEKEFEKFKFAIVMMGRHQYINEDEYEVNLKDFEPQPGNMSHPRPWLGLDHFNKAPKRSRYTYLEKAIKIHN

Row | EC50 | Compound
1 | > 10 µM | CC(=O)c1cc([N+](=O)[O-])c(Sc2ccccc2Cl)s1 [Example 1, 1-[5-(2-Chlorophenylsulfanyl)-4-nitro-2-thienyl]ethanone]
2 | 1 to 10 µM | CC(=O)c1cc([N+](=O)[O-])c(Sc2ccccc2C(F)(F)F)s1 [Example 4, 1-{4-Nitro-5-[2-(trifluoromethyl)phenylsulfanyl]-2-thienyl}ethanone]
3 | > 10 µM | CC(=O)c1cc([N+](=O)[O-])c(Sc2cccc3ccccc23)s1 [Example 5, 1-[5-(Naphth-1-ylsulfanyl)-4-nitro-2-thienyl]ethanone]
4 | 1 to 10 µM | CC(=O)c1cc([N+](=O)[O-])c(Sc2cccc(Cl)c2)s1 [Example 6, 1-[5-(3-Chlorophenylsulfanyl)-4-nitro-2-thienyl]ethanone]
5 | 1 to 10 µM | CC(=O)c1cc([N+](=O)[O-])c(Sc2ccc(C(F)(F)F)cc2)s1 [Example 10, 1-{5-[4-(Trifluoromethyl)phenylsulfanyl]-4-nitro-2-thienyl}ethanone]
6 | > 10 µM | CC(=O)c1cc([N+](=O)[O-])c(Sc2ccc3ccccc3c2)s1 [Example 11, 1-[5-(2-Naphthylsulfanyl)-4-nitro-2-thienyl]ethanone]
7 | 1 to 10 µM | CC(=O)c1cc([N+](=O)[O-])c(Sc2ccc(Br)cc2)s1 [Example 12, 1-[5-(4-Bromophenylsulfanyl)-4-nitro-2-thienyl]ethanone]
8 | 1 to 10 µM | CC(=O)c1cc([N+](=O)[O-])c(Sc2ccc([N+](=O)[O-])cc2)s1 [Example 13, 1-[4-nitro-5-(4-nitrophenylsulfanyl)-2-thienyl]ethanone]
9 | > 10 µM | CC(=O)c1cc([N+](=O)[O-])c(Sc2nccs2)s1 [Example 14, 1-(4-nitro-5-thiazol-2-ylsulfanyl-2-thienyl)ethanone]
10 | 1 to 10 µM | CC(=O)c1cc([N+](=O)[O-])c(Sc2nccn2C)s1 [Example 15, 1-[5-(1-methylimidazol-2-yl)sulfanyl-4-nitro-2-thienyl]ethanone]
11 | > 10 µM | CC(=O)c1cc([N+](=O)[O-])c(Sc2ccc(-c3ccccc3)cc2)s1 [Example 16, 1-[4-nitro-5-(4-phenylphenyl)sulfanyl-2-thienyl]ethanone]
12 | 1 to 10 µM | CC(=O)c1cc([N+](=O)[O-])c(Sc2c(Cl)c[n+]([O-])cc2Cl)s1 [Example 18, 1-[5-(3,5-dichloro-1-oxido-pyridin-1-ium-4-yl)sulfanyl-4-nitro-2-thienyl]ethanone]
13 | > 10 µM | CC(O)c1cc([N+](=O)[O-])c(Sc2cccc(Cl)c2Cl)s1 (centres unmarked) [Example 19, 1-[5-(2,3-dichlorophenyl)sulfanyl-4-nitro-2-thienyl]ethanol]
14 | > 10 µM | CC(=O)c1cc(I)c(Sc2ccc(Cl)cc2Cl)s1 [Example 20, 1-[5-(2,4-dichlorophenyl)sulfanyl-4-iodo-2-thienyl]ethanone]
15 | > 10 µM | CC(O)c1cc([N+](=O)[O-])c(Sc2ccc(Cl)cc2Cl)s1 (centres unmarked) [Example 26, 1-[5-(2,4-dichlorophenyl)sulfanyl-4-nitro-2-thienyl]ethanol]
16 | > 10 µM | CC(N)c1cc([N+](=O)[O-])c(Sc2ccc(Cl)cc2Cl)s1 (centres unmarked) [Example 27, 1-[5-(2,4-dichlorophenyl)sulfanyl-4-nitro-2-thienyl]ethanamine]
17 | > 10 µM | CNC(C)c1cc([N+](=O)[O-])c(Sc2ccc(Cl)cc2Cl)s1 (centres unmarked) [Example 28, 1-[5-(2,4-dichlorophenyl)sulfanyl-4-nitro-2-thienyl]-N-methyl-ethanamine]
18 | > 10 µM | CC(c1cc([N+](=O)[O-])c(Sc2ccc(Cl)cc2Cl)s1)N(C)C (centres unmarked) [Example 29, 1-[5-(2,4-dichlorophenyl)sulfanyl-4-nitro-2-thienyl]-N,N-dimethyl-ethanamine]
19 | > 10 µM | COc1ccc(CNC(C)c2cc([N+](=O)[O-])c(Sc3ccc(Cl)cc3Cl)s2)cc1 (centres unmarked) [Example 30, 1-[5-(2,4-dichlorophenyl)sulfanyl-4-nitro-2-thienyl]-N-[(4-methoxyphenyl)methyl]ethanamine]
20 | > 10 µM | O=C(c1cccc([N+](=O)[O-])c1)c1cc([N+](=O)[O-])c(Sc2ccc(Cl)cc2Cl)s1 [Example 31, [5-(2,4-dichlorophenyl)sulfanyl-4-nitro-2-thienyl]-(3-nitrophenyl)methanone]
21 | 1 to 10 µM | O=Cc1cc([N+](=O)[O-])c(Sc2ccc(Cl)cc2Cl)s1 [Example 32, 5-(2,4-dichlorophenylsulfanyl)-4-nitrothiophene-2-carbaldehyde]
22 | > 10 µM | O=[N+]([O-])c1cc(Br)sc1Sc1ccc(Cl)cc1Cl [Example 33, 5-bromo-2-(2,4-dichlorophenyl)sulfanyl-3-nitro-thiophene]

Row | EC50 | Compound
23 | > 10 µM | CC(=O)c1cc([N+](=O)[O-])c([S+]([O-])c2ccc(Cl)cc2Cl)s1 (centres unmarked) [Example 34, 1-[5-(2,4-dichlorophenyl)sulfinyl-4-nitro-2-thienyl]ethanone]
24 | 1 to 10 µM | CC(=O)c1cc([N+](=O)[O-])c(S(=O)(=O)c2ccc(Cl)cc2Cl)s1 [Example 35, 1-[5-(2,4-dichlorophenyl)sulfonyl-4-nitro-2-thienyl]ethanone]
25 | 1 to 10 µM | CC(=O)c1cc([N+](=O)[O-])c(Sc2c(F)c(F)cc(F)c2F)s1 [Example 36, 1-[4-nitro-5-(2,3,5,6-tetrafluorophenyl)sulfanyl-2-thienyl]ethanone]
26 | 1 to 10 µM | CC(=O)c1cc([N+](=O)[O-])c(Sc2cnc3ccccc3n2)s1 [Example 37, 1-(4-nitro-5-quinoxalin-2-ylsulfanyl-2-thienyl)ethanone]
27 | > 10 µM | CC(=O)c1cc([N+](=O)[O-])c(Sc2ccc3c(C)cc(=O)oc3c2)s1 [Example 38, 7-[(5-acetyl-3-nitro-2-thienyl)sulfanyl]-4-methyl-chromen-2-one]
28 | > 10 µM | CC(=O)c1cc([N+](=O)[O-])c(Sc2ccncc2Cl)s1 [Example 39, 1-[5-[(3-chloro-4-pyridyl)sulfanyl]-4-nitro-2-thienyl]ethanone]
29 | 1 to 10 µM | CC(=O)c1cc([N+](=O)[O-])c(Sc2cc(C(F)(F)F)cc(C(F)(F)F)c2)s1 [Example 40, 1-[5-[3,5-bis(trifluoromethyl)phenyl]sulfanyl-4-nitro-2-thienyl]ethanone]
30 | > 10 µM | CCOC(=O)c1cc([N+](=O)[O-])c(Sc2cccc(Cl)c2Cl)s1 [Example 41, Ethyl 5-(2,3-dichlorophenylsulfanyl)-4-nitrothiophene-2-carboxylate]
31 | 1 to 10 µM | CNC(=O)c1cc([N+](=O)[O-])c(Sc2cccc(Cl)c2Cl)s1 [Example 42, 5-(2,3-dichlorophenylsulfanyl)-N-methyl-4-nitrothiophene-2-carboxamide]
32 | 1 to 10 µM | COC(=O)c1cc([N+](=O)[O-])c(Sc2c(Cl)cncc2Cl)s1 [Example 43, Methyl 5-[(3,5-dichloro-4-pyridyl)sulfanyl]-4-nitro-thiophene-2-carboxylate]
33 | 1 to 10 µM | CC(C)NC(=O)c1cc([N+](=O)[O-])c(Sc2c(Cl)cncc2Cl)s1 [Example 44, 5-[(3,5-dichloro-4-pyridyl)sulfanyl]-N-isopropyl-4-nitro-thiophene-2-carboxamide]
34 | 1 to 10 µM | O=C(NCc1ccccc1)c1cc([N+](=O)[O-])c(Sc2c(Cl)cncc2Cl)s1 [Example 45, N-benzyl-5-[(3,5-dichloro-4-pyridyl)sulfanyl]-4-nitro-thiophene-2-carboxamide]
35 | 1 to 10 µM | NC(=O)c1cc([N+](=O)[O-])c(Sc2c(Cl)cncc2Cl)s1 [Example 46, 5-[(3,5-dichloro-4-pyridyl)sulfanyl]-4-nitro-thiophene-2-carboxamide]
36 | 1 to 10 µM | CN(C)CCNC(=O)c1cc([N+](=O)[O-])c(Sc2c(Cl)cncc2Cl)s1 [Example 48, 5-[(3,5-dichloro-4-pyridyl)sulfanyl]-N-(2-dimethylaminoethyl)-4-nitro-thiophene-2-carboxamide]
37 | 1 to 10 µM | CN(C)C(=O)c1cc([N+](=O)[O-])c(Sc2c(Cl)cncc2Cl)s1 [Example 49, 5-[(3,5-dichloro-4-pyridyl)sulfanyl]-N,N-dimethyl-4-nitro-thiophene-2-carboxamide]
38 | 1 to 10 µM | CSCCNC(=O)c1cc([N+](=O)[O-])c(Sc2c(Cl)cncc2Cl)s1 [Example 50, 5-((3,5-dichloropyridin-4-yl)thio)-N-(2-(methylthio)ethyl)-4-nitrothiophene-2-carboxamide]
39 | 1 to 10 µM | COc1ccccc1CNC(=O)c1cc([N+](=O)[O-])c(Sc2c(Cl)cncc2Cl)s1 [Example 51, 5-((3,5-dichloropyridin-4-yl)thio)-N-(2-methoxybenzyl)-4-nitrothiophene-2-carboxamide]
40 | 1 to 10 µM | O=C(NCc1ccco1)c1cc([N+](=O)[O-])c(Sc2c(Cl)cncc2Cl)s1 [Example 52, 5-((3,5-dichloropyridin-4-yl)thio)-N-(furan-2-ylmethyl)-4-nitrothiophene-2-carboxamide]
41 | 1 to 10 µM | COCCNC(=O)c1cc([N+](=O)[O-])c(Sc2c(Cl)cncc2Cl)s1 [Example 53, 5-((3,5-dichloropyridin-4-yl)thio)-N-(2-methoxyethyl)-4-nitrothiophene-2-carboxamide]
42 | 1 to 10 µM | O=C(NCCOc1ccccc1)c1cc([N+](=O)[O-])c(Sc2c(Cl)cncc2Cl)s1 [Example 54, 5-((3,5-dichloropyridin-4-yl)thio)-4-nitro-N-(2-phenoxyethyl)thiophene-2-carboxamide]
43 | 1 to 10 µM | O=C(NCCc1cccs1)c1cc([N+](=O)[O-])c(Sc2c(Cl)cncc2Cl)s1 [Example 55, 5-((3,5-dichloropyridin-4-yl)thio)-4-nitro-N-(2-(thiophen-2-yl)ethyl)thiophene-2-carboxamide]
44 | 1 to 10 µM | Cc1ccsc1CNC(=O)c1cc([N+](=O)[O-])c(Sc2c(Cl)cncc2Cl)s1 [Example 56, 5-((3,5-dichloropyridin-4-yl)thio)-N-((3-methylthiophen-2-yl)methyl)-4-nitrothiophene-2-carboxamide]
